Reference: US20200062710A1, “Method For Producing 3-(Pyridyl-2-Amino)Propionitrile And Analogues Thereof” (Nipppon Kayaku Kabushiki Kaisha, priority 2016, published 2020)

Key:
[1] = test system: Twospotted Spider Mite (Tetranychus urticae); assay: Pest control test (leaf soaking treatment) to twospotted spider mite; type: in vivo; details: 800 ppm, bean leaf with eggs soaked about 30 seconds, 25° C., seven days after treatment
Procedure: Biological Test Example 1: Pest Control Test (Leaf Soaking Treatment) to Twospotted Spider Mite (Tetranychus urticae)
A bean leaf was cut to a diameter of 3.5 cm and placed on absorbent cotton moistened with water. Five adult females of the twospotted spider mite were released on the bean leaf and laid eggs for 24 hours, and then the adults were removed. This bean leaf was soaked for about 30 seconds in 20 mL of the dilution solution of the test compound diluted to 800 ppm. After air-drying, the bean leaf was put in a plastic cup together with absorbent cotton, covered, and kept in a constant temperature room at 25° C. In seven days after treatment, life and death were observed and the ovicidal rate was calculated.

[2] = test system: Rice Brown Planthopper (Nilaparvata lugens); assay: Pest control test (stem and leaf soaking treatment) to rice brown planthopper; type: in vivo; details: 800 ppm, rice seedlings soaked, 25° C., five days after treatment
Procedure: Biological Test Example 2: Pest Control Test (Stem and Leaf Soaking Treatment) to Rice Brown Planthopper (Nilaparvata lugens)
Ten rice seedlings were soaked in 20 mL of the test compound solution diluted to 800 ppm and air-dried. After air drying, the rice seedings were hold in a glass cylinder (inner diameter 4.5 cm×14 cm) with urethane and stood on the plastic cup in which 40 mL of water was put. The […] larva of rice brown planthopper was released there, covered with medicine package, and kept in a constant temperature room at 25° C. In five days after treatment, life and death were observed and the mortality was calculated.

| Compound | pest control effect (ovicidal rate) [1] | control effect (mortality) [2] |
| --- | --- | --- |
| N#CCCN(C=O)c1ccccn1 [compound (4′), N-(2-cyanoethyl)-N-(2-pyridyl)formamide] | 100% | – |
| N#CCCNc1ccccn1 [compound (1′), 3-(Pyridyl-2-amino)propionitrile] | – | 50% |
